Key:
[1] = target: T1, Organic cation transporter 1 (btOCT1) (Bos taurus, UniProt A7MBE0, N71Q/N91Q/N107Q); assay: fluorescence polarization with purified btOCT1; rhodamine […] alone does not bind; assay type: binding
T1 construct: gene SLC22A1; purified tag-free btOCT1 triple N-glycosylation mutant (NP_001094568.1), expressed in Pichia pastoris
T1 sequence (A7MBE0 1-563 N71Q/N91Q/N107Q): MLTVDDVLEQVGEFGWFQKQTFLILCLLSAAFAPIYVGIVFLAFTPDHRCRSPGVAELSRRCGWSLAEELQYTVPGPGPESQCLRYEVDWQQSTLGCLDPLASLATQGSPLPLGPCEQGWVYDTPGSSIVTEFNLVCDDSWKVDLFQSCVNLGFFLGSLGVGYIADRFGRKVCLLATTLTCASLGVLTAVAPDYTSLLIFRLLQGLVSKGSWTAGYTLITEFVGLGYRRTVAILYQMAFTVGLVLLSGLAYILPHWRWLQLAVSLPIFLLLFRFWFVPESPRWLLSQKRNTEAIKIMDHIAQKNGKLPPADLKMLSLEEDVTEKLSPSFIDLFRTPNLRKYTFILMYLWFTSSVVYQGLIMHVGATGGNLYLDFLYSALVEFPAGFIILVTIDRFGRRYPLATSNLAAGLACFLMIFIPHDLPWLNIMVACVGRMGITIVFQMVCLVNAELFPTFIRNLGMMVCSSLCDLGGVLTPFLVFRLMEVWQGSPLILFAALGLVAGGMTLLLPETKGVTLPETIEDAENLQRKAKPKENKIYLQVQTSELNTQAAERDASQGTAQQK

[2] = target: T2, Organic cation transporter 1 (btOCT1) (Bos taurus, UniProt A7MBE0, N107Q/N71Q/N91Q); assay: SPR kinetics, purified btOCT1 over streptavidin-immobilised PGE2-PEG11-Biotin (PEG11-Biotin control); steady-state k […]; assay type: binding
T2 construct: gene SLC22A1; purified tag-free btOCT1 triple N-glycosylation mutant (NP_001094568.1), expressed in Pichia pastoris
T2 sequence (A7MBE0 1-563 N71Q/N91Q/N107Q): T1 sequence (A7MBE0 1-563 N71Q/N91Q/N107Q)

Kd [1] [nM]	Molecule	Kd [2] [nM]
540	PGE2-Rhodamine	
	CCCCC[C@H](O)/C=C/[C@H]1[C@H](O)CC(=O)[C@@H]1C/C=C\CCCC(=O)O [Prostaglandin E2]	~100

Reference: article PMC4821612, “Multispecific Organic Cation Transporter 1 (OCT1) from Bos taurus Has High Affinity and Slow Binding Kinetics towards Prostaglandin E2” (PLoS ONE, 2016)
